Reference: US8916526B2, “Flavanone derivative” (National University Corporation Okayama University, priority 2009, dated 2014)
Values after ≈ are worked out from the molar mass of the structure shown.

Tests used:
[1] = target: T1, Escherichia coli Topoisomerase IV (Escherichia coli, UniProt P0AFI2+P20083); test: Topoisomerase IV inhibition (decatenation kit), Exp. Ex. 2-3; type: biochemical; settings: decatenation of kDNA, 37° C., 30 minutes; read-out: IC50 (E. coli topoisomerase IV inhibitions)
T1 construct: purchased John Innes Enterprises
Experimental: (§1) Staphylococcus aureus Topoisomerase IV and Escherichia coli Topoisomerase IV were purchased from John Innes Enterprises. 1 unit of topoisomerase IV was cultured with 200 ng of kinetoplast DNA (kDNA) in 30 L of a reaction solution at 37° C. for 30 minutes under the conditions of 50 mM Tris-HCl (pH 7.5) (S. aureus)/50 mM HEPES-KOH (pH 7.6) (E. coli), 5 mM MgCl2 (S. aureus)/5 mM magnesium acetate (E. coli), 350 mM potassium glutamate (S. aureus)/100 mM potassium glutamate (E. coli), 5 mM dithiotheri (S. aureus)/10 mM dithiotheri (E. coli), 1.5 mM ATP (S. aureus)/1 mM ATP (E. coli), and 40% (w/v) glycerol. The reactions were stopped by adding 8 L of a reaction stop solution (40% sucrose, 100 mM Tris.HCl (pH 7.5), 1 mM EDTA, 0.5 mg/ml bromophenol blue). Agarose gel (1.0%) was poured into TAE (40 mM Tris acetate, 2 mM EDTA).

[2] = target: T2, Staphylococcus aureus Topoisomerase IV (Staphylococcus aureus, UniProt P0C1S7+P0C1U9); test: as above; type: biochemical; settings: decatenation of kDNA, 37° C., 30 minutes; read-out: IC50 (S. aureus topoisomerase IV inhibitions)
T2 construct: purchased John Innes Enterprises
Experimental: as §1

[3] = tested on: Vancomycin-resistant enterococci FN-1; test: In vitro infectivity assay (MIC), Exp. Ex. 2-1; type: cell-based; settings: Gram-positive; microdilution, MIC after 24 h
Experimental: (§2) The antibacterial activities were measured based on broth dilution techniques of international standards (Clinical Laboratory Standards Institute: CLSI). The activities were shown by minimum inhibitory concentrations (MICs) determined by inoculating the above-mentioned strains at a concentration of about 10^5 […] into Mueller-Hinton broth (manufactured by Difco) containing 0.85% NaCl in 96-well microplates and incubating the plates at 35° C. for 24 hours. Measurement was carried out three times.
(§3) The antibacterial activities of the compounds of the present invention against various strains such as vancomycin-resistant enterococci (VRE), vancomycin intermediate-resistant Staphylococcus aureus (VISA), methicillin-resistant Staphylococcus aureus (MRSA), and methicillin-sensitive Staphylococcus aureus (MSSA) were examined. Of the bacteria used in MIC measurement in this test example, clinical bacteria of MRSA (OM481 strain and OM584 strain) were supplied from Okayama University Hospital (Japan). An MRSA strain N315, a vancomycin intermediate-resistant Staphylococcus aureus (VISA) strain Mu50, and a methicillin-sensitive Staphylococcus aureus (MSSA) strain FDA 209P were used as controls. Vancomycin-resistant enterococcus (VRE) strains NCTC 12201 and FN-1 were supplied from the National Institute of Infectious Disease (Japan).

[4] = tested on: Vancomycin intermediate-resistant Staphylococcus aureus Mu50; test: In vitro infectivity assay (MIC), Exp. Ex. 2-1; type: cell-based; settings: Gram-positive, microdilution, MIC after 24 h
Experimental: as §2, §3

[5] = tested on: Vancomycin-resistant enterococci NCTC 12201; test: In vitro infectivity assay (MIC), Exp. Ex. 2-1; type: cell-based; settings: Gram-positive; microdilution, MIC after 24 h
Experimental: as §2, §3

[6] = tested on: Methicillin-resistant S. aureus OM584; test: In vitro infectivity assay (MIC), Exp. Ex. 2-1; type: cell-based, Staphylococcus aureus; settings: Gram-positive, microdilution, MIC after 24 h
Experimental: as §2, §3

[7] = tested on: Methicillin-resistant S. aureus COL; test: In vitro infectivity assay (MIC), Exp. Ex. 2-1; type: cell-based, Staphylococcus aureus; settings: Gram-positive, microdilution, MIC after 24 h
Experimental: as §2, §3

[8] = tested on: Methicillin sensitive S. aureus 209P; test: In vitro infectivity assay (MIC), Exp. Ex. 2-1; type: cell-based, Staphylococcus aureus; settings: Gram-positive, microdilution, MIC after 24 h
Experimental: as §2, §3

[9] = tested on: Methicillin-resistant S. aureus OM481; test: In vitro infectivity assay (MIC), Exp. Ex. 2-1; type: cell-based, Staphylococcus aureus; settings: Gram-positive, microdilution, MIC after 24 h
Experimental: as §2, §3

[10] = tested on: Methicillin-resistant S. aureus N315; test: In vitro infectivity assay (MIC), Exp. Ex. 2-1; type: cell-based, Staphylococcus aureus; settings: Gram-positive, microdilution, MIC after 24 h
Experimental: as §2, §3

[11] = tested on: Streptococcus pneumoniae R6; test: In vitro infectivity assay (MIC), Exp. Ex. 2-1; type: cell-based; settings: Gram-positive; microdilution, MIC after 24 h
[12] = tested on: Pseodomonas aeruginosa PAOI; test: Antibacterial activity (MIC) against Gram-negative strains, microdilution; type: cell-based; settings: MIC after 24 h
Experimental: as §2

[13] = tested on: Escherichia coli K-12; test: as above; type: cell-based; settings: for MIC (Gram-nagative) K-12: MIC after 24 h
Experimental: as §2

[14] = target: T3, E. coli DNA gyrase (Escherichia coli, UniProt P0AES4+P0AES6); test: DNA gyrase inhibition (supercoiling kit), Exp. Ex. 2-2; type: biochemical; settings: supercoiling activity, 37° C., 30 minutes; read-out: IC50 (E. coli DNA gyrase inhibitions)
T3 construct: purchased John Innes Enterprises #K0001
Experimental: As a kit for measurement of DNA gyrase of Escherichia coli, a product purchased from John Innes Enterprises (Gyrase Supercoiling assay kit #K0001) was used. Relaxed DNA was modified with gyrase into supercoiled DNA, and reaction products were separated by electrophoresis depending on the sizes of the molecular weights to examine anti-gyrase effects (IC50). 1 unit (1 U) of DNA gyrase and […] of relaxed pBR322 DNA were added to […] of the reaction solution, and the mixture was allowed to react at 37° C. for 30 minutes in the presence of 35 mM Tris-HCl (pH 7.5), 24 mM KCl, 4 mM MgCl2, 2 mM DTT, 1.8 mM spermidine, 1 mM ATP, 6.5% (w/v) glycerol, and 0.1 mg/ml BSA. The reactions were stopped using […] of a reaction stop solution (40% sucrose, 100 mM Tris-HCl (pH 7.5), 1 mM EDTA, 0.5 mg/ml bromophenol blue).

T3 sequence (P0AES4 whole entry, one chain of several): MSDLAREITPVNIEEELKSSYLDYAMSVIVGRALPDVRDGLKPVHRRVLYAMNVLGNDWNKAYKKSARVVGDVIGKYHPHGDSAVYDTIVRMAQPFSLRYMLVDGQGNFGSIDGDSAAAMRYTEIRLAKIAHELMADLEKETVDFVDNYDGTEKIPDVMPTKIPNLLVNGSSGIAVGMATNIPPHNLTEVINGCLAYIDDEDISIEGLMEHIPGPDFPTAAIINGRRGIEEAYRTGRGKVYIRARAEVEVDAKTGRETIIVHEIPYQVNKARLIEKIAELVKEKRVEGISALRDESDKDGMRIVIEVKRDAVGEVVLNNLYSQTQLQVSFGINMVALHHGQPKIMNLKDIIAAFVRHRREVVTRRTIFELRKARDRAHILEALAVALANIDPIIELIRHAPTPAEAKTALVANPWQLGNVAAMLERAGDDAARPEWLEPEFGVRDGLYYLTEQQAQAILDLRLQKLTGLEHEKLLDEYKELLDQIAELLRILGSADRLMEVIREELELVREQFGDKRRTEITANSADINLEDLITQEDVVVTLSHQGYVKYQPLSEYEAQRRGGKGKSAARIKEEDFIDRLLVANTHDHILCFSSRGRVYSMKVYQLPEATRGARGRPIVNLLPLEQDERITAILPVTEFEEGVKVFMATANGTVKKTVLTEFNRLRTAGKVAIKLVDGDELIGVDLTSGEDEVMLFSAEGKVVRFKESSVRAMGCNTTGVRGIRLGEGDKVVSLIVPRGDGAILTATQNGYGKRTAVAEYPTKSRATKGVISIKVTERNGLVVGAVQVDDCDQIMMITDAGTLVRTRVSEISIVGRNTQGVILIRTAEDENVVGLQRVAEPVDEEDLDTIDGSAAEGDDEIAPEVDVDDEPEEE
T2 sequence (P0C1U9 whole entry): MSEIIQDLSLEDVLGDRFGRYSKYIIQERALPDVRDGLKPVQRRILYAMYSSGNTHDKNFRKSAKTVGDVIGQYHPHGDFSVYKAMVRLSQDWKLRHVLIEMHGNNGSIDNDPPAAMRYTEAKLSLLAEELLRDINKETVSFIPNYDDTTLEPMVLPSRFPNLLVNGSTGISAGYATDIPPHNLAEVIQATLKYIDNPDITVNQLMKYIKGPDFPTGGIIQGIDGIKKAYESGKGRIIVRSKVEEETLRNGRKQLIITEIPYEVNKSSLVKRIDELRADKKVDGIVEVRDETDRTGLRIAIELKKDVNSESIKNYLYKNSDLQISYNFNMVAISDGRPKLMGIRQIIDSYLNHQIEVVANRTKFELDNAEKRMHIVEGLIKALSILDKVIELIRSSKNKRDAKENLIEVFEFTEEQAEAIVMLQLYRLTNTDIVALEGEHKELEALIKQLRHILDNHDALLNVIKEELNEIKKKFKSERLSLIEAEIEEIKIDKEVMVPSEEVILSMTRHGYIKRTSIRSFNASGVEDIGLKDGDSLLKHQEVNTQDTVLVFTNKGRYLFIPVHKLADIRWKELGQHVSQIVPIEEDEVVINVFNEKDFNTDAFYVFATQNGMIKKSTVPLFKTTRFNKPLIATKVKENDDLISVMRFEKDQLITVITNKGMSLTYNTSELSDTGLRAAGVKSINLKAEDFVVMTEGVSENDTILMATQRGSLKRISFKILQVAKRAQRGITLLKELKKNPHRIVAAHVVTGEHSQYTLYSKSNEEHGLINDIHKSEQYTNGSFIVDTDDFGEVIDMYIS
T2 sequence (P0C1S7 whole entry): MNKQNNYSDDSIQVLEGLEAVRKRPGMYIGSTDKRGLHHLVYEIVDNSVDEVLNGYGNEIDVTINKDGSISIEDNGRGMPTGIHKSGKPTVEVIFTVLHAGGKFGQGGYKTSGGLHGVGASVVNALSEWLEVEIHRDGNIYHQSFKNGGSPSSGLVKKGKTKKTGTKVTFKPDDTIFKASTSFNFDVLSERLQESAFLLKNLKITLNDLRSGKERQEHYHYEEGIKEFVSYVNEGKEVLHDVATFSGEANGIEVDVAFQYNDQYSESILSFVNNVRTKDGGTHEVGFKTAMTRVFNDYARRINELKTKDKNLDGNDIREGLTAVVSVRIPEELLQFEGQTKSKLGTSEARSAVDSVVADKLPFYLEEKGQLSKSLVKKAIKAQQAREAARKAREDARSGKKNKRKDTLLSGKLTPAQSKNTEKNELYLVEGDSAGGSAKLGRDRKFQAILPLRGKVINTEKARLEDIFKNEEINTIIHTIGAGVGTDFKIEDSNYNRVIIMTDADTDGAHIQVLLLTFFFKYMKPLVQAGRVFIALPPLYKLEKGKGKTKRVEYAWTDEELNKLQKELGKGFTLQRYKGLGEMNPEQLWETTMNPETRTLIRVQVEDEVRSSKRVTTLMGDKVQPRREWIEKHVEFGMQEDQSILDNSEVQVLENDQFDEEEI
T1 sequence (P20083 whole entry): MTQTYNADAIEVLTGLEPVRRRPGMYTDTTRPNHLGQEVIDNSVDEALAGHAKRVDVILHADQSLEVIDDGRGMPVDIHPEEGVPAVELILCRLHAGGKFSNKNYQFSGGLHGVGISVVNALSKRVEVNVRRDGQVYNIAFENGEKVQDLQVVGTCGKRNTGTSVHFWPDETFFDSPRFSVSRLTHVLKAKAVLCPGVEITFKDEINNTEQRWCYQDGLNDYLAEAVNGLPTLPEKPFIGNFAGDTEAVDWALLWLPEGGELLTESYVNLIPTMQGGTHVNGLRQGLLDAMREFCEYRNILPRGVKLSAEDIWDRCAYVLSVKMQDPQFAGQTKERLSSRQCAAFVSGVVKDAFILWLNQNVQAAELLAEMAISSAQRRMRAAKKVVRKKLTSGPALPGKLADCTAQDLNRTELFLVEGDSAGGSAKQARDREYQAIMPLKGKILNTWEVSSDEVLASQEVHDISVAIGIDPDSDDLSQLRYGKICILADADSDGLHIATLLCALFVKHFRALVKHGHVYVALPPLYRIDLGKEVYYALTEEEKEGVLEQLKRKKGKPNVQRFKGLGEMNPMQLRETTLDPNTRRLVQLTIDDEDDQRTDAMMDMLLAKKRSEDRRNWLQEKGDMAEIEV
T1 sequence (P0AFI2 whole entry): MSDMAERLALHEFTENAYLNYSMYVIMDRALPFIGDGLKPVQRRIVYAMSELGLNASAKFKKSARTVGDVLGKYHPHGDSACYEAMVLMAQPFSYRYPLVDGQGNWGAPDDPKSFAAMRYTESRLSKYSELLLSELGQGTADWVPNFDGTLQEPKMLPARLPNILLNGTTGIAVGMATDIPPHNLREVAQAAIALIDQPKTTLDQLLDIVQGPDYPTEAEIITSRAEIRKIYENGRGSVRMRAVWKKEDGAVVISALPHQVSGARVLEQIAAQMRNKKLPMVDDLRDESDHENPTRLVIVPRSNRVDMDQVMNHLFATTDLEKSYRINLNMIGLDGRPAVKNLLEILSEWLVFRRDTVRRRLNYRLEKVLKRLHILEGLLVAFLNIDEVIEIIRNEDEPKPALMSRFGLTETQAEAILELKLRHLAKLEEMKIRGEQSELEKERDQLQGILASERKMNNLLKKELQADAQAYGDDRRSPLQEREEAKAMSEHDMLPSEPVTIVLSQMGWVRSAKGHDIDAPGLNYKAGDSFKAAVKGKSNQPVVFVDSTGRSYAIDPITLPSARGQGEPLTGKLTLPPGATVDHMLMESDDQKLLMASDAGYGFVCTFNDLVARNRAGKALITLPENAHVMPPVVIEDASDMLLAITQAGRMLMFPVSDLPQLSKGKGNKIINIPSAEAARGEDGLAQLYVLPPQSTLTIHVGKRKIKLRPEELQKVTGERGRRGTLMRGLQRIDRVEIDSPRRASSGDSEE

| Compound | IC50 [1] | IC50 [2] | MIC VRE FN-1 [3] | MIC VISA Mu50 [4] | MIC VRE NCTC 12201 [5] | MIC MRSA OM584 [6] | MIC MRSA COL [7] | MIC MSSA 209P [8] | MIC MRSA OM481 [9] | MIC MRSA N315 [10] | MIC S. Pneumoniae R6 [11] | MIC (Gram-nagative) PAO1 [12] | MIC (Gram-nagative) K-12 [13] | IC50 [14] | also measured |
| --- | --- | --- | --- | --- | --- | --- | --- | --- | --- | --- | --- | --- | --- | --- | --- |
| O=C(CCCc1ccc(F)cc1)OC[C@H]1O[C@@H](Oc2c(-c3ccc(O)c(O)c3)oc3cc(O)cc(O)c3c2=O)[C@H](OC(=O)CCCc2ccc(F)cc2)[C@@H](O)[C@H]1O [Compound 14j, 2-(3′,4′-Dihydroxyphenyl)-5,7-dihydroxy-3-β-D-{2″,6″-di-O-[3′″-(4-fluorophenylbutanoyl)]}galactosyl-4H-chromen-4-one] | 8960 nM | 2940 nM | 8 µg/mL (≈ 10.1 µM) | 4 µg/mL (≈ 5.05 µM) | 8 µg/mL (≈ 10.1 µM) | 2 µg/mL (≈ 2.52 µM) | 16 µg/mL (≈ 20.2 µM) | 4 µg/mL (≈ 5.05 µM) | 2 µg/mL (≈ 2.52 µM) | 4 µg/mL (≈ 5.05 µM) | 2 µg/mL (≈ 2.52 µM) | >128 µg/mL | >128 µg/mL | 2980 nM | – |
| CC(=O)OC[C@H]1O[C@@H](Oc2cc(O)c3c(=O)c(O[C@@H]4O[C@H](COC(C)=O)[C@H](OC(C)=O)[C@H](OC(C)=O)[C@H]4OC(C)=O)c(-c4ccc(O)c(O)c4)oc3c2)[C@H](OC(C)=O)[C@@H](OC(C)=O)[C@H]1OC(C)=O [Compound 5, 2-(3′,4′Dihydroxyphenyl)-5-hydroxy-3,7-di-β-D-octaacetylgalactosyl-4H-chromen-4-one] | – | – | 32 µg/mL (≈ 33.2 µM) | 64 µg/mL (≈ 66.5 µM) | 32 µg/mL (≈ 33.2 µM) | 32 µg/mL (≈ 33.2 µM) | 128 µg/mL (≈ 133 µM) | 64 µg/mL (≈ 66.5 µM) | 32 µg/mL (≈ 33.2 µM) | 64 µg/mL (≈ 66.5 µM) | 64 µg/mL (≈ 66.5 µM) | >128 µg/mL | >128 µg/mL | – | – |
| O=C(OC[C@H]1O[C@@H](Oc2c(-c3ccc(O)c(O)c3)oc3cc(O)cc(O)c3c2=O)[C@H](OC(=O)c2ccc(F)cc2)[C@@H](O)[C@H]1O)c1ccc(F)cc1 [Compound 14c, 2-(3′,4′-Dihydroxyphenyl)-5,7-dihydroxy-3-β-D-[2″,6″-di-O-(4-fluorobenzoyl)]galactosyl-4H-chromen-4-one] | 7020 nM | 520 nM | 4 µg/mL (≈ 5.65 µM) | 2 µg/mL (≈ 2.82 µM) | 4 µg/mL (≈ 5.65 µM) | 2 µg/mL (≈ 2.82 µM) | 8 µg/mL (≈ 11.3 µM) | 4 µg/mL (≈ 5.65 µM) | 2 µg/mL (≈ 2.82 µM) | 8 µg/mL (≈ 11.3 µM) | 4 µg/mL (≈ 5.65 µM) | >128 µg/mL | >128 µg/mL | 380 nM | – |
| O=C(CCc1ccc(F)cc1)OC[C@H]1O[C@@H](Oc2c(-c3ccc(O)c(O)c3)oc3cc(O)cc(O)c3c2=O)[C@H](OC(=O)CCc2ccc(F)cc2)[C@@H](O)[C@H]1O [Compound 14m, 2-(3′,4′-Dihydroxyphenyl)-5,7-dihydroxy-3-β-D-{2″,6″-di-O-[3′″-(4-fluorophenylpropanoyl)]}galactosyl-4H-chromen-4-one] | 7520 nM | 2990 nM | 16 µg/mL (≈ 20.9 µM) | 32 µg/mL (≈ 41.8 µM) | 16 µg/mL (≈ 20.9 µM) | 16 µg/mL (≈ 20.9 µM) | 32 µg/mL (≈ 41.8 µM) | 16 µg/mL (≈ 20.9 µM) | 16 µg/mL (≈ 20.9 µM) | 16 µg/mL (≈ 20.9 µM) | 32 µg/mL (≈ 41.8 µM) | >128 µg/mL | >128 µg/mL | 1400 nM | – |
| O=C(CCCCc1ccc(F)cc1)OC[C@H]1O[C@@H](Oc2c(-c3ccc(O)c(O)c3)oc3cc(O)cc(O)c3c2=O)[C@H](OC(=O)CCCCc2ccc(F)cc2)[C@@H](O)[C@H]1O [Compound 14k, 2-(3′,4′-Dihydroxyphenyl)-5,7-dihydroxy-3-β-D-{2″,6″-di-O-[3′″-(4-fluorophenylpentanoyl)]}galactosyl-4H-chromen-4-one] | > 12000 nM | 4050 nM | 16 µg/mL (≈ 19.5 µM) | 16 µg/mL (≈ 19.5 µM) | 16 µg/mL (≈ 19.5 µM) | 4 µg/mL (≈ 4.87 µM) | 16 µg/mL (≈ 19.5 µM) | 4 µg/mL (≈ 4.87 µM) | 4 µg/mL (≈ 4.87 µM) | 2 µg/mL (≈ 2.44 µM) | 8 µg/mL (≈ 9.75 µM) | >128 µg/mL | >128 µg/mL | 5020 nM | – |
| CC(=O)OC[C@H]1O[C@@H](Oc2c(-c3ccc(O)c(O)c3)oc3cc(O)cc(O)c3c2=O)[C@H](OC(C)=O)[C@@H](OC(C)=O)[C@H]1OC(C)=O [Compound 12, 2-(3′,4′-Dihydroxyphenyl)-5,7-dihydroxy-3-β-D-tetraacetylgalactosyl-4H-chromen-4-one] | – | – | 64 µg/mL (≈ 101 µM) | 128 µg/mL (≈ 202 µM) | 64 µg/mL (≈ 101 µM) | 128 µg/mL (≈ 202 µM) | >128 µg/mL | 128 µg/mL (≈ 202 µM) | 128 µg/mL (≈ 202 µM) | 128 µg/mL (≈ 202 µM) | 128 µg/mL (≈ 202 µM) | >128 µg/mL | >128 µg/mL | – | – |
| penicillin [reference compound] | – | – | – | – | – | – | – | – | – | – | 0.5 µg/mL | – | – | – | – |
| CO[C@@H]1[C@@H](OC(N)=O)[C@@H](O)[C@H](Oc2ccc3c(O)c(NC(=O)c4ccc(O)c(CC=C(C)C)c4)c(=O)oc3c2C)OC1(C)C [Novobiocin, novobiocin, reference compound] | – | – | – | – | – | – | – | – | – | – | – | – | – | – | MIC ([4]; Staphylococcus aureus, VISA, read-out: MIC VISA Mu50): 8 µg/mL (≈ 13.1 µM); MIC ([6]; Staphylococcus aureus, MRSA, read-out: MIC MRSA OM584): 0.25 µg/mL (≈ 0.408 µM); MIC ([7]; Staphylococcus aureus, MRSA): 0.25 µg/mL (≈ 0.408 µM); MIC ([8]; Staphylococcus aureus, 209P / MSSA, read-out: MIC MSSA 209P): 0.125 µg/mL (≈ 0.204 µM); MIC ([9]; Staphylococcus aureus, MRSA, read-out: MIC MRSA OM481): 0.25 µg/mL (≈ 0.408 µM); MIC ([10]; Staphylococcus aureus, MRSA, read-out: MIC MRSA N315): 0.125 µg/mL (≈ 0.204 µM); MIC ([12]; read-out: MIC (Gram-nagative) PAO1): 8 µg/mL (≈ 13.1 µM); MIC ([13]; K12, MIC after 24 h, read-out: MIC (Gram-nagative) K-12): 8 µg/mL (≈ 13.1 µM) |
